11 compounds from ChEMBL document CHEMBL3045786, “Insect antifeedant activity of tetranortriterpenoids from the Rutales. A perusal of structural relations” (2002) can be followed below.

Structures are written as SMILES.

One assay concerns Spodoptera litura. Nature of the assay: Antifeedant activity against larvae of Spodoptera litura in castor leaves relative to control. The assay is classed as functional.
In the case of `COC(=O)C[C@H]1[C@]2(C)C3=C(C)[C@H](c4ccoc4)C[C@H]3O[C@@H]2[C@@H]2OC[C@]3(C)[C@H](O)C[C@H](OC(=O)C=C(C)C)[C@@]1(C)[C@@H]23`, the AFI is 52.1%.

The next assay deals with Spodoptera litura. Description: Feeding index against larvae of Spodoptera litura in castor leaves =.
With `CC(=O)O[C@@H]1[C@H](O)[C@H]2C(C)(C)C(=O)C=C[C@]2(C)[C@H]2CC[C@@]3(C)[C@H](C45CC(O)OC4O5)C[C@@H]4O[C@@]43[C@]12C` (stereo partly specified) [NIMONOL PP2], the PFI came out at 15.8%.
Same read-out and setting: the same measure for `CC(=O)O[C@@H]1[C@H](O)[C@H]2C(C)(C)C(=O)C=C[C@]2(C)[C@H]2CC[C@@]3(C)[C@H](C4=CC(O)OC4=O)C[C@@H]4O[C@@]43[C@]12C` (stereo partly specified) [NIMONOLIDE]: 21.3%.
As to `CC(=O)O[C@@H]1[C@H](O)[C@H]2C(C)(C)C(=O)C=C[C@]2(C)[C@H]2CC[C@]3(C)C(=CC[C@H]3c3ccoc3)[C@]12C` [NIMONOL], the PFI stood at 47.3%.
Same read-out and setting: then `C/C=C(\C)C(=O)O[C@H]1C[C@@H](OC(C)=O)[C@@]2(C)CO[C@H]3[C@H]4O[C@@H]5CC(C6=CC(=O)OC6O)=C(C)C5[C@@]4(C)[C@H](CC(=O)OC)[C@]1(C)[C@@H]32` (stereo partly specified) [SALANNIN PP1], with 29.1%.
On the same count and under the same terms, then `C/C=C(\C)C(=O)O[C@H]1C[C@@H](OC(C)=O)[C@@]2(C)CO[C@H]3[C@H]4O[C@@H]5C[C@@H](C6=CC(=O)OC6O)C(C)=C5[C@@]4(C)[C@H](CC(=O)OC)[C@]1(C)[C@@H]32` (stereo partly specified) [SALANNIN PP], with 25.1%; and `C/C=C(/C)C(=O)O[C@H]1C[C@@H](OC(C)=O)[C@@]2(C)CO[C@H]3[C@H]4O[C@@H]5C[C@@H](c6ccoc6)C(C)=C5[C@@]4(C)[C@H](CC(=O)OC)[C@]1(C)[C@@H]32` [SALANNIN], with 36.3%.
As to `C/C=C(\C)C(=O)O[C@H]1C[C@@H](OC(C)=O)[C@@]2(C)CO[C@H]3[C@H]4O[C@@H]5C[C@@H](C6=CCOC6=O)C(C)=C5[C@@]4(C)[C@H](CC(=O)OC)[C@]1(C)[C@@H]32` [SALANNOBUTYROLACTONE], the PFI is 46.3%.
With `C/C=C(\C)C(=O)O[C@H]1C[C@@H](OC(C)=O)[C@@]2(C)CO[C@H]3[C@H]4O[C@@H]5C[C@@H](C6=CC(O)OC6=O)C(C)=C5[C@@]4(C)[C@H](CC(=O)OC)[C@]1(C)[C@@H]32` (stereo partly specified) [SALANNOLIDE], the PFI worked out at 26.3%.
The same measure, in the same setting: the same measure for `C/C=C(\C)C(=O)O[C@@H]1[C@@H]2C=C3[C@@H]4CC(=O)O[C@@H](C5=CC(O)OC5=O)[C@]4(C)CC[C@@H]3[C@@](C)(C2=O)[C@@H]([C@@H](O)C(=O)OC)C1(C)C` (stereo partly specified) [SWIETENINE PP]: 40.2%; for `C/C=C(\C)C(=O)O[C@@H]1[C@@H]2C=C3[C@@H]4CC(=O)O[C@@H](c5ccoc5)[C@]4(C)CC[C@@H]3[C@@](C)(C2=O)[C@@H]([C@@H](O)C(=O)OC)C1(C)C` [SWIETENINE]: 49.1%.
